Values joined by “and” are separate entries in the source; they are usually repeats but may differ in a detail not shown here. Equal entries are not always repeated. Starred links: 1 amine or outer side, 2 acyl side, 3 side chain; linkers in the order of their positions; H or OH if unused. Non-standard residues stand in square brackets, D forms with d. Residues, ends and D or L forms follow the SMILES beside them. azaβ3(1Nal) = O=C(CN(Cc1cccc2ccccc12)N[*:1])[*:2]
Assays:
S. aureus MRSA = assay: Cutaneous abscess mouse model (lesion size, CFU); assay type: in vivo, mice
Protocol: For the cutaneous abscess model, the mice were randomly divided into 5 sets. The mice were anesthetized with isoflurane, their dorsal fur shaved, and their skin disinfected with 70% ethanol. An overnight culture of S. aureus MRSA or P. aeruginosa LESB58 was washed with 0.9% NaCl, and then a subcutaneous injection of 2 × 10^9 CFUs and an equal amount of sterile Cytodex microcarrier beads (20 mg.ml^−1, Sigma) for S. aureus MRSA, or 10^8 CFUs for P. aeruginosa were injected into the shaved area. […] Mice were monitored every day and then euthanized with CO2 on Day 6 or on Day 3. Abscesses were excised, measured, and homogenized in PBS using an Ultra-Turax. Serial dilutions of the samples were plated on BHI (MRSA) or 2YT medium (LESB58) plates and then incubated overnight at 37°C. Afterward, the CFUs were counted and expressed as log CFU/ml. Dermonecrosis areas were calculated according to the formula π × L × W. ATP levels were determined with an ATP assay kit (Promega) according to manufacturer instructions on sets of 5 colonies harboring the SCV phenotype, and sets of 5 colonies harboring a normal phenotype, after growth on BHI plates.

MRSA = assay: Severe sepsis mouse model, survival; assay type: in vivo; conditions: mice, approximately 2 × 10^9 CFUs MRSA IV; 4 IV doses of 0.5 mg.kg^−1 at 2, 24, 48, 72 h
Excerpt: Tolerance and toxicity studies were done on male Swiss mice (CD-1 Crl: CD-1 [ICR] IGS; Charles River). These were 7 to 10 weeks old and weighed an average of 37.2 g. All experimental protocols were approved by the Adaptive Therapeutics Animal Care and Use Committee (APAFiS #4508-2016031l15541258 v2). For the sepsis model, we used female Swiss mice (Janvier Labs), 6 to 8 weeks old and weighing approximately 30 g. Experiments were monitored in the ARCHE-BIOSIT animal lab in Rennes, in biological duplicate. We used Groups of 5 mice for the mild and the severe sepsis models with MRSA. Mice were IV inoculated with 150 μl of MRSA suspensions in 0.9% NaCl containing approximately 5 × 10^8 CFUs for the “mild” sepsis and approximately 2 × 10^9 CFUs for the “severe” sepsis, respectively. […] Mice survival was monitored for 4 d (“severe” sepsis) or 14 d (“mild” sepsis), and the statistical significance of difference(s) between the groups was evaluated using the Wilcoxon test. P < 0.05 was considered significant. Two weeks (“mild” sepsis) or 4 d (“severe” sepsis) after inoculation, mice were euthanized with CO2.

[1] = mice, MRSA subcutaneous, single IV 1.5 mg.kg^−1 at 24 h, 6 days post infection

CC(C)[C@@H]1NC(=O)[C@H](CCCNC(=N)N)NC(=O)[C@H](CCCNC(=N)N)NC(=O)CN(Cc2cccc3ccccc23)NC(=O)[C@H](Cc2ccccc2)NC(=O)CN(Cc2cccc3ccccc23)NC(=O)[C@H](CCCCN)NC1=O [Pep19] (cyclo([azaβ3(1Nal)]F[azaβ3(1Nal)]RRVK))
CFU counts per abscess, SCV (S. aureus MRSA; cutaneous abscesses from MRSA in mice, IV 24 h post-infection, 1.5 mg.kg-1, SCV, individual values): 5.62 log Cfu/ml and 5.85 log Cfu/ml and 5.73 log Cfu/ml and 5.93 log Cfu/ml and 5.11 log Cfu/ml and 4.73 log Cfu/ml and 4.55 log Cfu/ml and 5.5 log Cfu/ml and 5.67 log Cfu/ml | Area of dermonecrosis (S. aureus MRSA; cutaneous abscesses from MRSA in mice, IV 24 h post-infection, 1.5 mg.kg-1, individual values): 165.8 mm2 and 78.8 mm2 and 98.9 mm2 and 174.7 mm2 and 106.7 mm2 and 160.2 mm2 and 96.4 mm2 and 106.4 mm2 and 176.2 mm2 | Bacterial content of skin abscess (S. aureus MRSA; [1]): strong reduction | Skin abscess volume (S. aureus MRSA; [1]): strong reduction | Survival in severe sepsis (MRSA): protected the infected animals

From paper PMC6615598, “Novel antibiotics effective against gram-positive and -negative multi-resistant bacteria with limited resistance” (PLoS Biology, 2019)
